This is an account of results in PubChem BioAssay (NCI).

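Exposure lasted 48 hours, with cells grown in 96-well plates and compounds tested at five concentrations. Here, GI50 denotes the concentration required for 50% inhibition of growth. Definition used: TGI = concentration required for complete inhibition of growth.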 Where only a bound is given, the exact number is not on record here.

Holding throughout (assay): DTP human tumour cell line panel, 48 h
Experiment [1] has as its system EKVX NSCLC.
Experiment [2] relates to HOP-92 NSCLC.
The subject of experiment [3] is HT29 colon.
Experiment [4] relates to K-562 leukemia.
Experiment [5] deals with MDA-MB-231 breast.
Experiment [6] concerns MDA-MB-435.
Experiment [7] deals with OVCAR-8 ovarian.
In experiment [8] the test system is SNB-19 CNS.
Experiment [9] has as its system SR leukemia.
Experiment [10] concerns UO-31 renal.

In general, TGI refers to the concentration giving total growth inhibition. As a reminder, the GI50 is the concentration that inhibits growth by half.

As to `CCC(CCCN)Nc1cc(OC)cc2cccnc12` (stereo not given), the TGI in experiment [1], in experiment [2], in experiment [3], in experiment [4], in experiment [5] and in experiment [6] was above 100 µM in each case. In addition, the TGI in experiment [7], in experiment [8], in [9] and in [10] was above 100 µM each time.
For the compound `CCCC/C=C1\CCC(CN2CCCCC2)C1=O` (stereo not given), the total growth inhibition concentration (TGI) was 31.9 µM in [1]; 21 µM in experiment [2]; 23.7 µM in experiment [3]; 22.8 µM in [4]; above 100 µM in [5]; above 100 µM in [6]. For the same compound, the TGI in [7] is 33.1 µM; in experiment [8], 49.4 µM; in experiment [9], above 24.7 µM; in experiment [10], 47.7 µM.
On to `CC(=O)O[C@H]1CC[C@@]2(C)C(=CC[C@@H]3[C@@H]2CC[C@]2(C)C(c4cccnc4)=CC[C@@H]32)C1`, for which the GI50 was 4.62 µM in experiment [1]; 3.08 µM in experiment [2]; 3.07 µM in experiment [3]; 4.04 µM in experiment [4]; 5.23 µM in experiment [5]; 3.03 µM in experiment [6]. In addition, the GI50 is 19.3 µM in experiment [7], 24.1 µM in experiment [8], 3.01 µM in experiment [9] and 5.47 µM in [10]. In addition, the TGI in experiment [1] was above 100 µM; in experiment [2], 32.5 µM; in experiment [3], 12.7 µM; in experiment [4], above 100 µM; in [5] it was 33.7 µM; in [6], above 100 µM. Moreover, the TGI in experiment [7] is above 100 µM; in [8], above 100 µM; in experiment [9], 8.35 µM; in experiment [10], above 100 µM.
Turning to `Oc1ccc(Cl)cc1C1=N/C(=N\CN2CCN(C/N=C3/N=C(c4cc(Cl)ccc4O)CC(c4ccccc4)N3)CC2)NC(c2ccccc2)C1` (stereo not given), the concentration for total growth inhibition (TGI) in experiment [1], in [2], in experiment [3], in [4], in [5] and in experiment [6] was above 100 µM in each case. The TGI in experiment [7], in experiment [8], in experiment [9] and in experiment [10] was above 100 µM in each case.
As for `COC(=O)Cc1ccc2c(c1)Sc1ccc(CC(=O)OC)cc1N2C`, the TGI in experiment [1], in [2], in [3], in [4], in [5] and in [6] was above 100 µM each time. The TGI was above 100 µM in experiment [7], above 100 µM in experiment [8], above 79.1 µM in [9] and above 58.5 µM in experiment [10].
For `CCC(C)[C@H](NC(=O)N[C@H](C)c1ccccc1)C(=O)OC` (stereo not given in full), the TGI in experiment [1], in [2], in [3], in [4], in experiment [5] and in experiment [6] was above 100 µM each time. Besides, the TGI in experiment [7], in experiment [8], in experiment [9] and in [10] was above 100 µM each time.
For `COc1ccc2nc3cc(Cl)ccc3c(NCCCCCC(=O)NC(COc3cnc4c(ccc5cccnc54)c3)COc3cnc4c(ccc5cccnc54)c3)c2c1`, the TGI in experiment [1] was above 100 µM; in [2], above 100 µM; in experiment [3], above 100 µM; in experiment [4], 13.6 µM; in experiment [5], 44 µM; in [6], above 100 µM. Also, the total growth inhibition concentration (TGI) in [7] was above 100 µM; in experiment [8], above 100 µM; in experiment [9], 11.7 µM; in [10], above 100 µM.
Regarding `CN1CC2=C(OC(N)=C(C#N)C2c2cccs2)/C(=C/c2cccs2)C1` (stereo not given), the total growth inhibition concentration (TGI) in experiment [1] was above 60.2 µM; in experiment [2], above 100 µM; in [3], above 78.3 µM; in experiment [4], above 100 µM; in experiment [5], above 100 µM; in experiment [6] it was 22.5 µM. The TGI is above 67.7 µM in experiment [7], above 100 µM in experiment [8], above 100 µM in experiment [9] and above 84.8 µM in experiment [10].
For `C=CCC(C)C12CCNC(Cc3ccc(O)cc31)C2C` (stereo not given), the TGI in experiment [1], in [2], in [3], in experiment [4], in experiment [5] and in [6] was above 100 µM in each case. Further, the TGI in experiment [7], in experiment [8], in experiment [9] and in [10] was above 100 µM in each case.
Consider `COc1ccc2c(c1)OC(c1cccnc1)C(c1ccccc1)C2=O` (stereo not given), for which the concentration for total growth inhibition (TGI) in experiment [1], in experiment [2], in [3], in experiment [4], in experiment [5] and in experiment [6] was above 100 µM throughout. For the same compound, the TGI in experiment [7], in [8], in [9] and in [10] was above 100 µM throughout.
As for `COc1ccc(CCn2cnc3ccccc32)cc1`, the total growth inhibition concentration (TGI) in experiment [1], in experiment [2], in [3], in [4], in experiment [5] and in experiment [6] was above 100 µM in each case. The total growth inhibition concentration (TGI) in experiment [7], in experiment [8], in [9] and in [10] was above 100 µM each time.
On to `CSc1nc(NC2CCCC2)c2cc[nH]c2n1`, for which the concentration for total growth inhibition (TGI) in [1], in experiment [2], in experiment [3], in experiment [4], in experiment [5] and in [6] was above 100 µM throughout. The TGI in experiment [7] is above 100 µM; in [8], above 100 µM; in [9] it was 61.6 µM; in experiment [10], above 100 µM.
